From patent US8501431B2, “Method for screening for compounds selectively interacting with RAD9” (Magnachem International Laboratories, Inc., priority 2008, dated 2013) come the findings set out here.

Entries after “also recorded” stand apart in the source; their conditions may differ.

The subject of the test is mutant strains of Saccharomyces cereviseae (gene rad9). As to the kind of experiment: Bioassay on solid mediums with Securolide on mutant strains of Saccharomyces cereviseae. The class given is cell-based. Conditions: concentration between ten and one hundred micrograms/milliliter, set of mutant strains, specifically the gene rad9. As for the experimental part:
Bioassays on solid mediums were performed with Securolide (LMSV-6) in a concentration between ten and one hundred micrograms/milliliter on a set of mutant strains of Saccharomyces cereviseae with DNA similar to that in tumor/cancer cells.

For the molecule `C=C1CCOC1=O` [Securolide], the cytoxic activity entry is “cell death of Rad9 mutant yeast strains; also recorded: marked cytoxic activity only on the mutant strains”.
